Measured values reported in patent US20260176265A1 (Cancer Research Technology Limited, priority 2022, published 2026).

Tests used:
[1] = molecular target: T1, Phospho-EGFR (Tyr1068) in H1975 C797S cells (Homo sapiens, UniProt P00533, C797S/L858R/T790M); test: HTRF pEGFR/total EGFR assay in H1975 C797S cells; format: cell-based; conditions: H1975 C797S cells (CRISPR), compound 3 hours, ratio pEGFR/total EGFR
T1 construct: endogenous in cells; host or cells: H1975 C797S (CRISPR-edited in house from ATCC CRL-5908)
Procedure, shortened: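 Phospho-EGFR (Tyr1068) and total EGFR were measured by HTRF (665 and 620 nm) in lysates of NGS-validated H1975 EGFR C797S cells. Cells were dosed for 3 h in duplicate, 0.1% DMSO final. Read-out is the pEGFR/total EGFR ratio relative to the 0 uM control, as percent.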

[2] = molecular target: T2, Phospho-EGFR (Tyr1068) in H1975 cells (Homo sapiens, UniProt P00533, L858R/T790M); test: HTRF pEGFR/total EGFR assay in H1975 cells; format: cell-based; conditions: compound 3 hours, ratio pEGFR/total EGFR
T2 construct: host or cells: H1975
Procedure, shortened: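 H1975 cells (EGFR L858R/T790M) adhered 24 h, then compound-treated for 3 h in duplicate, 0.1% DMSO final. Lysates read by HTRF at 665/620 nm for phospho-Tyr1068 and total EGFR. Value is pEGFR/total EGFR ratio as % of 0 uM control.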

[3] = molecular target: CtermHisTag-mEGFR Wild type (Homo sapiens, UniProt P00533); test: TR-FRET probe displacement assay, EGFR wild type; format: binding; conditions: EGFR wild type 1.25 nM, probe 100 nM, 30 mins room temperature
Procedure, shortened: (§1)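 Probe displacement from His-tagged wild-type or triple-mutant EGFR measured by TR-FRET (excitation 337 nm, emission 490/520 nm). Compounds spanned final concentrations from 3 to 100000 nM over ten points; technical replicates, repeated twice biologically.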

[4] = molecular target: CtermHisTag-mEGFR Triple Mutant - C797S, L858R, T790M (Homo sapiens, UniProt P00533, C797S/L858R/T790M); test: TR-FRET probe displacement assay, EGFR triple mutant; format: binding; conditions: T790M 1.25 nM, probe 100 nM, 30 mins room temperature
Procedure, shortened: as §1

[5] = molecular target: T3, Phospho-EGFR (Tyr1068) in A431 cells (Homo sapiens, UniProt P00533); test: HTRF pEGFR/total EGFR assay in A431 cells (EGF stimulated); format: cell-based; conditions: compound 2.5 hours then 100 ng/ml EGF 30 mins, ratio pEGFR/total EGFR
T3 construct: endogenous in cells; host or cells: A431
Procedure, shortened: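 HTRF readout (665 and 620 nm) of Tyr1068-phosphorylated versus total EGFR in lysed A431 cells, expressed as ratio relative to 0uM control (%). Compound exposure 2.5 h in duplicate at 0.1% DMSO, with 100 ng/ml EGF added for 30 min.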

CtermHisTag-mEGFR Triple Mutant - C797S, L858R, T790M, sequence (P00533 25-1210 T790M/C797S/L858R): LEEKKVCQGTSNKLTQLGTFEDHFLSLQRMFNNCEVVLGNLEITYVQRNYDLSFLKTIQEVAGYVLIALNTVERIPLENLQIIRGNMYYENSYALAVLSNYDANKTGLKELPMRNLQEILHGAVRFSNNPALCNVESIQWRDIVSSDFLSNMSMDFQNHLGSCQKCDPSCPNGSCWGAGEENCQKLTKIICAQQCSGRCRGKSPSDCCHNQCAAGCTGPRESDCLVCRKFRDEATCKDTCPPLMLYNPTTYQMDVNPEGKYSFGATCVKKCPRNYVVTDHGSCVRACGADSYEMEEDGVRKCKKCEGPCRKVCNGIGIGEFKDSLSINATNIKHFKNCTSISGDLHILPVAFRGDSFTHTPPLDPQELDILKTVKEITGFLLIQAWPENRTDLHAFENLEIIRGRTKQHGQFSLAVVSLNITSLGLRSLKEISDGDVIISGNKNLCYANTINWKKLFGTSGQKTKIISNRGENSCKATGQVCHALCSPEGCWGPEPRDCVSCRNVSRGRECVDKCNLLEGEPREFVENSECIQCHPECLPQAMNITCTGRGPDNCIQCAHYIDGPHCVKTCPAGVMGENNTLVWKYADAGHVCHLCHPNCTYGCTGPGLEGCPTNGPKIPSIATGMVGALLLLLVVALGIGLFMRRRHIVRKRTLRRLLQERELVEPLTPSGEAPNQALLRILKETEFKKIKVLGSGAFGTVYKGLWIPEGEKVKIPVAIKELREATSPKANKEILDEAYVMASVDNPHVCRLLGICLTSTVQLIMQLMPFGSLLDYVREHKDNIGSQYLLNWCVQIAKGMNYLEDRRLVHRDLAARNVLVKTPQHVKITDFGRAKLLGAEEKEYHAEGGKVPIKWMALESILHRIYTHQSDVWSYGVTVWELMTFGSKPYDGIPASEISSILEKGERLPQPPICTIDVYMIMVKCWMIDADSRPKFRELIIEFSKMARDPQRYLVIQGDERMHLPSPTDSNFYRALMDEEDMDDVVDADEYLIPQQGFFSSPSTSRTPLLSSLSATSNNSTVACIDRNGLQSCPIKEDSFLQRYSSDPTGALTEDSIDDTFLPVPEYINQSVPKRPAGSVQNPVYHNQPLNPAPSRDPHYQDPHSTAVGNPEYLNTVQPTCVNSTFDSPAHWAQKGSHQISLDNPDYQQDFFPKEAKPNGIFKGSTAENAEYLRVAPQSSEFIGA
T1 sequence (P00533 25-1210 T790M/C797S/L858R): as above
CtermHisTag-mEGFR Wild type, sequence (P00533 25-1210): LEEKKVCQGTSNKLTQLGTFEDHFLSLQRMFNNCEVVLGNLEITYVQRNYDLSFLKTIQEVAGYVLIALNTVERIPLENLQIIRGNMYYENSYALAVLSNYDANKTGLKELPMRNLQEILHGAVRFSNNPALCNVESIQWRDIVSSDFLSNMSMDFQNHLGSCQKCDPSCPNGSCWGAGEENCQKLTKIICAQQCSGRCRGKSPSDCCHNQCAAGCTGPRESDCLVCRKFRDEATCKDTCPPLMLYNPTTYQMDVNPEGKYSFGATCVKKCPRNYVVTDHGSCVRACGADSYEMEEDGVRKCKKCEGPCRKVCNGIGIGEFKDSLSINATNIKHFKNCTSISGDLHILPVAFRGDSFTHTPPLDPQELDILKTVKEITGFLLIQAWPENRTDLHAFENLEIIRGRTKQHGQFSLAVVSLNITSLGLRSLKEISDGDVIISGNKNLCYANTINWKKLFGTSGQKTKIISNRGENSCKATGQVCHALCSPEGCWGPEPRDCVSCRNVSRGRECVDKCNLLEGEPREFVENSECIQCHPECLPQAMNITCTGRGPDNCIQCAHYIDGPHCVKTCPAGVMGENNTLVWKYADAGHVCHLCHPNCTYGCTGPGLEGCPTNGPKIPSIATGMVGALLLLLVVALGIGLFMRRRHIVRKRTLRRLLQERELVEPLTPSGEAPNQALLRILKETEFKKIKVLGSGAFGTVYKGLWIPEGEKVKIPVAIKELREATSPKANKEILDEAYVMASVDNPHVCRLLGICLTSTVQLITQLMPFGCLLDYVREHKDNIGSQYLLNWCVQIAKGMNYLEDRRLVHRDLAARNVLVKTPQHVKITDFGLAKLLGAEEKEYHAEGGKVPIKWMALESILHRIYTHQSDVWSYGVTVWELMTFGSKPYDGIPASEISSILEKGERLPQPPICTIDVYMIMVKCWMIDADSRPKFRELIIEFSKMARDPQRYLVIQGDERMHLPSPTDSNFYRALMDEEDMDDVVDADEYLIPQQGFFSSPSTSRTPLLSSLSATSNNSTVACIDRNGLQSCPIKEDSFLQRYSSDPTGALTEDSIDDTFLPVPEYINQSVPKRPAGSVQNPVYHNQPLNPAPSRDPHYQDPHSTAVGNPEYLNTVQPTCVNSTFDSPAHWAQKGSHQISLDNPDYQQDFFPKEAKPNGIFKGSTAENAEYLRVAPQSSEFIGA
T3 sequence (P00533 25-1210): as above

Row | SMILES | IC50 [1] [nM] | IC50 [2] [nM] | IC50 [3] [nM] | IC50 [4] [nM] | IC50 [5] [nM]
1 | C#Cc1cc(NC(=O)NCc2cnco2)nc2nc(Nc3ccc(N4CCN(C)CC4)cc3)ncc12 [Example 45, 1-(5-ethynyl-2-{[4-(4-methylpiperazin-1-yl)phenyl]amino}pyrido[2,3-d]pyrimidin-7-yl)-3-(1,3-oxazol-5-ylmethyl)urea] | 1000 to 3000 | 500 to 1000 | < 1000 | 20 to 100 | > 3000
2 | C#Cc1cc(NC(=O)NCc2cncn2C)nc2nc(Nc3ccc(N4CCN(C)CC4)cc3)ncc12 [Example 46, 1-(5-ethynyl-2-{[4-(4-methylpiperazin-1-yl)phenyl]amino}pyrido[2,3-d]pyrimidin-7-yl)-3-[(3-methylmidazol-4-yl)methyl]urea] | > 3000 | > 3000 | < 1000 | < 20 | > 3000
3 | C#Cc1cc(NC(=O)NCc2ccno2)nc2nc(Nc3ccc(N4CCN(C)CC4)cc3)ncc12 [Example 47, 1-(5-ethynyl-2-{[4-(4-methylpiperazin-1-yl)phenyl]amino}pyrido[2,3-d]pyrimidin-7-yl)-3-(1,2-oxazol-5-ylmethyl)urea] | 1000 to 3000 | 500 to 1000 | < 1000 | 20 to 100 | > 3000
4 | C#Cc1cc(NC(=O)NCc2ccccn2)nc2nc(Nc3ccc(N4CCN(C)CC4)cc3)ncc12 [Example 49, 3-(5-ethynyl-2-{[4-(4-methylpiperazin-1-yl)phenyl]amino}pyrido[2,3-d]pyrimidin-7-yl)-1-(pyridin-2-ylmethyl)urea] | 1000 to 3000 | 500 to 1000 | < 1000 | 20 to 100 | > 3000
5 | C#Cc1cc(NC(=O)NCC2CCCO2)nc2nc(Nc3ccc(N4CCN(C)CC4)cc3)ncc12 (stereo not drawn) [Example 50, 1-(5-ethynyl-2-{[4-(4-methylpiperazin-1-yl)phenyl]amino}pyrido[2,3-d]pyrimidin-7-yl)-3-(oxolan-2-ylmethyl)urea] | 500 to 1000 | < 500 | < 1000 | 20 to 100 | > 3000
6 | C#Cc1cc(NC(=O)N[C@@H]2CCN(C(C)=O)C2)nc2nc(Nc3ccc(N4CCN(C)CC4)cc3)ncc12 [Example 52] | > 3000 | > 3000 | 1000 to 10000 | 20 to 100 | > 3000
7 | C#Cc1cc(NC(=O)N[C@H]2CCN(C(C)=O)C2)nc2nc(Nc3ccc(N4CCN(C)CC4)cc3)ncc12 [Example 53, 3-[(3S)-1-acetylpyrrolidin-3-yl]-1-(5-ethynyl-2-{[4-(4-methylpiperazin-1-yl)phenyl]amino}pyrido[2,3-d]pyrimidin-7-yl)urea] | > 3000 | 1000 to 3000 | < 1000 | < 20 | > 3000
8 | C#Cc1cc(NC(=O)NC2CN(C(C)=O)C2)nc2nc(Nc3ccc(N4CCN(C)CC4)cc3)ncc12 [Example 54] | > 3000 | > 3000 | 1000 to 10000 | < 20 | > 3000
9 | C#Cc1cc(NC(=O)N2CCCC2)nc2nc(Nc3ccc(N4CCN(C)CC4)cc3)ncc12 [Example 56, N-(5-ethynyl-2-{[4-(4-methylpiperazin-1-yl)phenyl]amino}pyrido[2,3-d]pyrimidin-7-yl)pyrrolidine-1-carboxamide] | > 3000 | 1000 to 3000 | > 10000 | 100 to 1000 | > 3000
10 | C#Cc1cc(NC(=O)NC2CN(S(C)(=O)=O)C2)nc2nc(Nc3ccc(N4CCN(C)CC4)cc3)ncc12 [Example 57, 1-(5-ethynyl-2-{[4-(4-methylpiperazin-1-yl)phenyl]amino}pyrido[2,3-d]pyrimidin-7-yl)-3-(1-methanesulfonylazetidin-3-yl)urea] | > 3000 | > 3000 | < 1000 | < 20 | > 3000
11 | C#Cc1cc(NC(=O)N2Cc3ccccc3C2)nc2nc(Nc3ccc(N4CCN(C)CC4)cc3)ncc12 [Example 58, N-(5-ethynyl-2-{[4-(4-methylpiperazin-1-yl)phenyl]amino}pyrido[2,3-d]pyrimidin-7-yl)-1,3-dihydroisoindole-2-carboxamide] | > 3000 | > 3000 | > 10000 | 100 to 1000 | > 3000
12 | C#Cc1cc(NC(=O)Nc2ncc[nH]2)nc2nc(Nc3ccc(N4CCN(C)CC4)cc3)ncc12 [Example 59, 1-(5-ethynyl-2-{[4-(4-methylpiperazin-1-yl)phenyl]amino}pyrido[2,3-d]pyrimidin-7-yl)-3-(1H-imidazol-2-yl)urea] | 1000 to 3000 | 1000 to 3000 | < 1000 | < 20 | > 3000
13 | C#Cc1cc(NC(=O)NC2(C(F)(F)F)CCCC2)nc2nc(Nc3ccc(N4CCN(C)CC4)cc3)ncc12 [Example 60, 1-(5-ethynyl-2-((4-(4-methylpiperazin-1-yl)phenyl)amino)pyrido[2,3-d]pyrimidin-7-yl)-3-(1-(trifluoromethyl)cyclopentyl)urea] | < 500 | < 500 | < 1000 | < 20 | < 500
14 | C#Cc1cc(NC(=O)NC2(C)COC2)nc2nc(Nc3ccc(N4CCN(C)CC4)cc3)ncc12 [Example 61, 1-(5-ethynyl-2-((4-(4-methylpiperazin-1-yl)phenyl)amino)pyrido[2,3-d]pyrimidin-7-yl)-3-(3-methyloxetan-3-yl)urea] | < 500 | < 500 | < 1000 | < 20 | > 3000

Results, then the molecule that gave them:

Row | IC50 [1] [nM] | IC50 [2] [nM] | IC50 [3] [nM] | IC50 [4] [nM] | IC50 [5] [nM] | SMILES
15 | < 500 | < 500 | < 1000 | < 20 | 1000 to 3000 | C#Cc1cc(NC(=O)NC2CCC2)nc2nc(Nc3ccc(N4CCN(C)CC4)cc3)ncc12 [Example 41, 3-cyclobutyl-1-(5-ethynyl-2-{[4-(4-methylpiperazin-1-yl)phenyl]amino}pyrido[2,3-d]pyrimidin-7-yl)urea]
16 | < 500 | < 500 | < 1000 | < 20 | > 3000 | C#Cc1cc(NC(=O)NC2CCOC2)nc2nc(Nc3ccc(N4CCN(C)CC4)cc3)ncc12 (stereo not drawn) [Example 42, 1-(5-ethynyl-2-{[4-(4-methylpiperazin-1-yl)phenyl]amino}pyrido[2,3-d]pyrimidin-7-yl)-3-(oxolan-3-yl)urea]
17 | < 500 | < 500 | < 1000 | < 20 | > 3000 | C#Cc1cc(NC(=O)NC2COC2)nc2nc(Nc3ccc(N4CCN(C)CC4)cc3)ncc12 [Example 43, 1-(5-ethynyl-2-{[4-(4-methylpiperazin-1-yl)phenyl]amino}pyrido[2,3-d]pyrimidin-7-yl)-3-(oxetan-3-ylI)urea]
18 | < 500 | < 500 | < 1000 | < 20 | 1000 to 3000 | C#Cc1cc(NC(=O)NC2CC2)nc2nc(Nc3ccc(N4CCN(C)CC4)cc3)ncc12 [Example 44, 3-cyclopropyl-1-(5-ethynyl-2-{[4-(4-methylpiperazin-1-yl)phenyl]amino}pyrido[2,3-d]pyrimidin-7-yl)urea]
19 | < 500 | < 500 | < 1000 | < 20 | > 3000 | C#Cc1cc(NC(=O)NCc2ccnn2C)nc2nc(Nc3ccc(N4CCN(C)CC4)cc3)ncc12 [Example 48, 1-(5-ethynyl-2-{[4-(4-methylpiperazin-1-yl)phenyl]amino}pyrido[2,3-d]pyrimidin-7-yl)-3-[(2-methylpyrazol-3-yl)methyl]urea]
20 | < 500 | < 500 | < 1000 | < 20 | > 3000 | C#Cc1cc(NC(=O)NCC2CCOC2)nc2nc(Nc3ccc(N4CCN(C)CC4)cc3)ncc12 (stereo not drawn) [Example 51, 1-(5-ethynyl-2-{[4-(4-methylpiperazin-1-yl)phenyl]amino}pyrido[2,3-d]pyrimidin-7-yl)-3-(oxolan-3-ylmethyl)urea]
21 | < 500 | < 500 | < 1000 | < 20 | > 3000 | C#Cc1cc(NC(=O)NCC2COC2)nc2nc(Nc3ccc(N4CCN(C)CC4)cc3)ncc12 [Example 55, 1-(5-ethynyl-2-{[4-(4-methylpiperazin-1-yl)phenyl]amino}pyrido[2,3-d]pyrimidin-7-yl)-3-(oxetan-3-ylmethyl)urea]
